From patent US20260083848A1, “COMBINATION OF CAR T-CELL THERAPY WITH BTK INHIBITORS AND METHODS OF USE THEREOF” (priority 2021, published 2026)
“Also recorded” adds a separate entry of the source.

Assays:
CART19 cells [1] = experiment: CART19 proliferation in co-culture with irradiated JeKo-1 cells (absolute CD3+ T cell counts by flow cytometry); type: cell-based, human; details: for toxicity to CART19 cells: in vitro, concentrations up to 10 μM
Procedure: CART19 proliferation in the presence of vecabrutinib was evaluated. CART19 cells were cocultured with irradiated JeKo-1 tumor cells at a 1:1 ratio for 24 hours in the presence of 1 μM or 10 μM vecabrutinib. Control co-culture was treated with DMSO vehicle only. Absolute CD3+ T cell counts were measured by flow cytometry.
CART19 cells were cocultured with irradiated JeKo-1 tumor cells at a 1:1 ratio for 24 hours in the presence of 1 μM or 10 μM. Control co-culture was treated with DMSO only. Absolute CD3+ T cell counts were measured by flow cytometry.

mutant BTK = details: Aslan, et al (2021); cited from earlier work
[2] = tested on: pro-inflammatory cytokines in serum; experiment: Phase 1 clinical trial, serum cytokine panel in patients with B cell malignancies; type: in vivo, human; details: oral 20.5-410 mg twice daily, 4 weeks post-treatment vs pretreatment
Procedure: Human cancer patients having B cell malignancies were administered vecabrutinib in a Phase 1 clinical trial and a cytokine panel was used to evaluate cytokine levels in serum at 4 weeks following administration. Briefly, patients in the clinical trial had Chronic Lymphocytic Leukemia (CLL)/Small Lymphocytic Lymphoma (SLL) or Non Hodgkin's lymphoma (NHL) and had failed prior standard of care therapies. NHL indications included lymphoplasmacytoid lymphoma/Waldenstrom's macroglobulinemia (LPL/WM), mantle cell lymphoma (MCL), marginal zone lymphoma (MZL), diffuse large B-cell lymphoma of the activated B-cell subtype (DLBCL-ABC), and follicular lymphoma (FL). A group of 39 patients were orally administered a dose of 20.5 mg, 41 mg, 82 mg, 164 mg, 246 mg, 328 mg, or 410 mg of vecabrutinib as a capsule twice daily. Serum samples were collected from the patients prior to the start of treatment as 4-weeks post-treatment and analyzed by 38-multiplex (Millipore).

[3] = tested on: JeKo-1 lymphoma xenograft; experiment: JeKo-1 lymphoma xenograft mouse model with CART19 cells; details: 50 mg/kg oral gavage twice daily for 4 weeks, in combination with CART19
Procedure: The impact of vecabrutinib on CART19 cell anti-tumor effects was evaluated using a JeKo-1 lymphoma xenograft mouse model. To establish the mouse model, NSG mice were inoculated with 1×10^6 luciferase^+ JeKo-1 tumor cells by intravenous injection at day −14. […] Treatment groups received either CART cells with DMSO vehicle or CART cells in combination with 50 mg/kg vecabrutinib. The control group received untransduced T cells with DMSO vehicle. Administration of vecabrutinib or vehicle commenced one day prior to CART19 administration (i.e., day −1), and was given by oral gavage. Untransduced or CART19 were infused by intravenous administration on day 0 at a dose of 1×10^6 cells per animal. Vecabrutinib and vehicle were administered by oral gavage twice daily over a period of 4 weeks. Mice were imaged weekly by IVIS to assess tumor burden. Blood samples were collected from the mice on a weekly basis and the level of circulating CART19 cells was measured by flow cytometry. Mouse weight was also measured on a weekly basis as a measure of treatment toxicity.

CART19 cells [4] = experiment: CART19 cell cytokine production in co-culture with JeKo-1 cells (38-multiplex of supernatants); type: cell-based, human; details: 1 μM or 10 μM, 1:1 ratio
Procedure: The effect of vecabrutinib treatment on CART19 cell cytokine production was also evaluated. CART19 cells were cocultured with irradiated JeKo-1 tumor cells at a 1:1 ratio for 3 days in the presence of 1 μM or 10 μM vecabrutinib. […] Untransduced T cell/JeKo-1 coculture treated with 1 μM or 10 μM vecabrutinib were used as a negative control as the non-antigen-specific T cells were not expected to undergo activation and cytokine production in the presence of JeKo-1 target cells. Supernatants were harvested and the levels of multiple cytokines and chemokines were analyzed with 38-multiplex (Millipore).

[5] = tested on: CLL patients expressing BTK^C481S; details: Allan, et al (2019); cited from earlier work
[6] = tested on: CD19-expressing JeKo-1 tumor cells; experiment: CART19-mediated killing of JeKo-1 tumor cells in in vitro co-culture (bioluminescence); type: cell-based, human
Procedure: CART19 cells and JeKo-1 tumor cells were cultured at a 1:1 ratio for 24 hours in the presence of 1 μM or 10 μM vecabrutinib. […] Control of untransduced (UTD) T cell/JeKo-1 co-culture in the presence of 1 μM or 10 μM vecabrutinib was used to determine any tumor cell killing induced by vecabrutinib in the absence of CART19 cells. The percentage of tumor cell killing was measured using bioluminescence imaging, with samples treated with D-luciferin prior to imaging. […] Control co-culture was treated with DMSO only. The percentage of tumor cell killing was measured as described above.

CART19 cells [7] = experiment: CART19 cell degranulation (CD107α by flow cytometry) in co-culture with irradiated JeKo-1 cells; type: cell-based, human; details: 1 μM or 10 μM, 1:1 ratio, 4 hours; FIG. 3A
Procedure: CART19 cells were cocultured with irradiated JeKo-1 tumor cells at a 1:1 ratio for 4 hours in the presence of 1 μM or 10 μM vecabrutinib. […] Untransduced T cell/JeKo-1 co-culture treated with 1 μM or 10 μM vecabrutinib were used as a negative control as the non-antigen-specific T cells were not expected to undergo degranulation in the presence of JeKo-1 target cells. CD107α was used as a marker to quantify degranulation, as this marker becomes part of the cellular membrane and accessible to surface staining with CD107α-specific antibody in degranulating cells. Following coculture, cells were fixed, permeabilized, attained and analyzed for CD107 levels by flow cytometry.

wild-type BTK = wild-type BTK (Homo sapiens, UniProt Q06187); details: Aslan, et al (2021); cited from earlier work
Chain of wild-type BTK (Q06187 whole entry): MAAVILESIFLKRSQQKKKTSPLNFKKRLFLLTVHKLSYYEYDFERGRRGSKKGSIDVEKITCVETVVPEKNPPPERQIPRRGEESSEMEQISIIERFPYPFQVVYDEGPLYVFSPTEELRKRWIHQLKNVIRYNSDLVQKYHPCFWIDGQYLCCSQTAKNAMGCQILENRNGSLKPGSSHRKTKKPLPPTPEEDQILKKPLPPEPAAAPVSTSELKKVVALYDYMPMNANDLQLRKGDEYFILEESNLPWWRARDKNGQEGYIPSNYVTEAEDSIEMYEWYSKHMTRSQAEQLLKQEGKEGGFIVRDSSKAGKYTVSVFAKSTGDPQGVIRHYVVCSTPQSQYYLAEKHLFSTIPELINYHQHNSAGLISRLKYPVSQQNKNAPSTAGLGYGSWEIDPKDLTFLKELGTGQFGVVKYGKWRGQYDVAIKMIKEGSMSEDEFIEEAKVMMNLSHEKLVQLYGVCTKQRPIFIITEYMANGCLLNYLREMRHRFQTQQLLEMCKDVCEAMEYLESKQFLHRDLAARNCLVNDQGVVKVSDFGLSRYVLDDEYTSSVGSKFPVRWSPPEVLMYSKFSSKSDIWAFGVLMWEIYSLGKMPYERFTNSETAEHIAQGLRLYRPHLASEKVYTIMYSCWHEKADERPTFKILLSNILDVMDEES

| SMILES | toxicity to CART19 cells (CART19 cells [1]) | inhibitory activity against mutant BTK (mutant BTK) | serum level of IP-10 ([2]; FIG. 6A) | serum level of MIP-1β ([2]; FIG. 6B) | serum level of TNFα ([2]; FIG. 6C) | antitumor activity (tumor burden by IVIS) compared to CART19 alone ([3]; FIG. 4A) | CART19 proliferation (circulating CART19 cells by flow cytometry) ([3]; FIG. 4B) | CART proliferation compared to the DMSO control (CART19 cells [1]; 1 μM or 10 μM, 1:1 ratio, 24 hours, FIG. 2A) | CART19 proliferation compared to control (CART19 cells [1]; 10 μM, 1:1 ratio, 24 hours, FIG. 2A/2B) | IL-6 in supernatant (CART19 cells [4]; FIG. 3B) | IL-10 in supernatant (CART19 cells [4]; FIG. 3C) | MIP-1β in supernatant (CART19 cells [4]; FIG. 3D) | efficacy in CLL patients expressing BTK^C481S [5] | CART19-mediated killing of Jeko-1 lymphoma cells as compared to ibrutinib ([6]; 0.625.1 CART19 to tumor cell ratio, 24 hours, normalized to BTK inhibitor only, FIG. 1B) | killing of CD19-expressing JeKo-1 tumor cells ([6]; CART19:JeKo-1 1:1, 24 hours, 1 μM or 10 μM, vs DMSO control, FIG. 1A) | CART19 degranulation (CD107α) (CART19 cells [7]) | inhibitory activity against wild-type BTK (wild-type BTK) |
| --- | --- | --- | --- | --- | --- | --- | --- | --- | --- | --- | --- | --- | --- | --- | --- | --- | --- |
| C=CC(=O)N1CCC[C@@H](n2nc(-c3ccc(Oc4ccccc4)cc3)c3c(N)ncnc32)C1 [ibrutinib, reference compound] | toxic; also recorded: dose-dependent toxicity | – | – | – | – | – | – | – | – | – | – | – | – | – | – | – | – |
| NC(=O)[C@H]1CCN(c2ncnc(N)c2F)C[C@@H]1N1CCC[C@@H](Nc2cc(Cl)cc(C(F)(F)F)c2)C1=O [vecabrutinib, (3R,3′R,4′S)-1′-(6-amino-5-fluoropyrimidin-4-yl)-3-((3-chloro-5-(trifluoromethyl)phenyl)amino)-2-oxo-[1,3′-bipiperidine]-4′-carboxamide] | well-tolerated; also recorded: not toxic | maintain inhibitory activity | significantly decreased | significantly decreased | significantly decreased | sustained antitumor activity | increased | comparable | increased | downregulation | downregulation | downregulation | has efficacy | significantly potentiated | significantly increased | did not impair | maintain inhibitory activity |
